Target: T1, Human TRPA1 expressing CHO cells (Homo sapiens, UniProt O75762)
T1 construct: expressed in transfected cells; host or cells: CHO cells (under G-418 selection)
Assay: 45Calcium uptake assay: inhibition of AITC induced cellular uptake of radioactive calcium
Assay type: cell-based
Settings: AITC 30 μM, human TRPA1 CHO cells; for inhibition at 1 µM: 1.0 μM test compound, read-out: Percentage inhibition at 1.0 μM; for inhibition at 10 µM: 10.0 μM test compound, read-out: Percentage inhibition at 10.0 μM; for IC50: read-out: IC50 value (range)
Description: The illustrative examples of the present invention are screened for TRPA1 activity according to a modified procedure described in (a) Tóth, A. et al. Life Sciences (2003), 73, 487-498. ([…]. et al. Proc. Natl. Acad. Sci. U.S.A., (2007), 104, 13525-13530. The screening of the compounds can be carried out by other methods and procedures known to persons skilled in the art. Screening for TRPA1 Antagonist Using the ^45Calcium Uptake Assay The inhibition of TRPA1 receptor activation was measured as inhibition of allyl isothiocyanate (AITC) induced cellular uptake of radioactive calcium. […] Final concentration of DMSO in the reaction was 0.5% (v/v). […] Cells were seeded 24 h prior to the assay in 96 well plates so as to get 50,000 cells per well on the day of experiment. Cells were treated with test compounds for 10 min followed by addition of AITC at a final concentration of 30 μM and 5 μCi/ml ^45Ca^+2 for 3 min. […] Radioactivity in the lysate was measured in Packard Top count after addition of liquid scintillant. Concentration response curves were plotted as a % of maximal response obtained in the absence of test antagonist. IC50 value was calculated from concentration response curve by nonlinear regression analysis using GraphPad PRISM software.

T1 sequence (O75762 whole entry): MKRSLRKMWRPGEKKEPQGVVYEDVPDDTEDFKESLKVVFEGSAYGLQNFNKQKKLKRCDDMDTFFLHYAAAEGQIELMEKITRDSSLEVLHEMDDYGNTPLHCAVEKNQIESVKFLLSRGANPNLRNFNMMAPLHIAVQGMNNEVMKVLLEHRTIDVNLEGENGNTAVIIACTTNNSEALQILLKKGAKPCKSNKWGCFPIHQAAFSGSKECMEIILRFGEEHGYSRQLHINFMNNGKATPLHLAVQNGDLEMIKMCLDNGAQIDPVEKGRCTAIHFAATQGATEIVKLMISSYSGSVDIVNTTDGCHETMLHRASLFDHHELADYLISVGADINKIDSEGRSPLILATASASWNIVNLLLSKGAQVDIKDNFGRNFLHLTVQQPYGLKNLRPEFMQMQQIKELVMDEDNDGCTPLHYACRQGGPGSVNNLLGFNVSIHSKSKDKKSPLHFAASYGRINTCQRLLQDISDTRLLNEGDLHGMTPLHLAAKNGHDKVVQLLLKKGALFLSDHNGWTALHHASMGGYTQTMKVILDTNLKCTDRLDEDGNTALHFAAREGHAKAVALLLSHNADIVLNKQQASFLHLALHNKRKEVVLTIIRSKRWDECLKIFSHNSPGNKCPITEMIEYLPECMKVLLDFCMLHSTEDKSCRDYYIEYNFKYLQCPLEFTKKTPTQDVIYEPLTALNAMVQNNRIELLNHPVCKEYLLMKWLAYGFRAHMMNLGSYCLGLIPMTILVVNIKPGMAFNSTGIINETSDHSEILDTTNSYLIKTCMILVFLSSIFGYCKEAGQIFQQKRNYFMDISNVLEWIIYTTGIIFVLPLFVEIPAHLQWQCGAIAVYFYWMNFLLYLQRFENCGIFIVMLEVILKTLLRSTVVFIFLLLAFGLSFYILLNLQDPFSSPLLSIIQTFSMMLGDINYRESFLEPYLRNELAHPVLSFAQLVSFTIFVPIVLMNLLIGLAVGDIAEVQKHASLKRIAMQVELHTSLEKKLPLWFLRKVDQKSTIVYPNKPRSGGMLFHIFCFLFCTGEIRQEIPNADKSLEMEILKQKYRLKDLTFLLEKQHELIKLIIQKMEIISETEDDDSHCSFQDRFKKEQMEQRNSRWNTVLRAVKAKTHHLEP

Structure (SMILES) | inhibition at 1 µM | inhibition at 10 µM | IC50
Cn1c(=O)c2c(CC(=O)Nc3nc(-c4ccc(F)c(Cl)c4)cs3)cccc2n(C)c1=O [Example 49, N1-[4-(3-Chloro-4-fluorophenyl)-1,3-thiazol-2-yl]-2-(1,3-dimethyl-2,4-dioxo-1,2,3,4-tetrahydro-5-quinazolinyl)acetamide] | 98.6% | 99% | 50.1 to 100 nM
Cn1c(=O)c2c(CC(=O)Nc3ccn(-c4cccc(C(F)(F)F)c4)n3)cccc2n(C)c1=O [Example 81, N1-[1-(3-Trifluoromethylphenyl)-1H-3-pyrazolyl]-2-(1,3-dimethyl-2,4-dioxo-1,2,3,4-tetrahydro-5-quinazolinyl)acetamide] | 97.1% | 99.6% | 50.1 to 100 nM
Cn1c(=O)c2c(CC(=O)Nc3ccn(-c4ccc(Cl)cc4F)n3)cccc2n(C)c1=O [Example 82, N1-[1-(4-Chloro-2-Fluorophenyl)-1H-3-pyrazolyl]-2-(1,3-dimethyl-2,4-dioxo-1,2,3,4-tetrahydro-5-quinazolinyl)acetamide] | 76.7% | 90.7% | > 100 nM
Cn1c(=O)c2c(CC(=O)Nc3nc(-c4cccc(F)c4F)cs3)cccc2n(C)c1=O [Example 35, N1-[4-(2,3-Difluorophenyl)-1,3-thiazol-2-yl]-2-(1,3-dimethyl-2,4-dioxo-1,2,3,4-tetrahydro-5-quinazolinyl)acetamide] | 76.8% | 95.8% | 50.1 to 100 nM
Cn1c(=O)c2c(CC(=O)Nc3nc(C4CCCCC4)cs3)cccc2n(C)c1=O [Example 7, N1-[4-(4-Cyclohexyl)-1,3-thiazol-2yl]-2-(1,3-dimethyl-2,4-dioxo-1,2,3,4-tetrahydro-5-quinazolinyl)acetamide] | 62.2% | 60.5% | –
Cn1c(=O)c2c(CC(=O)Nc3nc(-c4cc(F)c(OC(F)F)c(F)c4)cs3)cccc2n(C)c1=O [Example 69] | 99.9% | 100% | < 50 nM
Cn1c(=O)c2c(CC(=O)Nc3nc4ccccc4s3)cccc2n(C)c1=O [Example 75] | 5.6% | 30.5% | –
Cc1ccc(Oc2ccc(NC(=O)Cc3cccc4c3c(=O)n(C)c(=O)n4C)cc2)cc1 [Example 3, N1-[4-(4-Methylphenoxy)phenyl]-2-(1,3-dimethyl-2,4-dioxo-1,2,3,4-tetrahydro-5-quinazolinyl)acetamide] | 7.98% | 31.6% | –
Cn1c(=O)c2c(CC(=O)Nc3nc(-c4c(Cl)ccc(F)c4Cl)cs3)cccc2n(C)c1=O [Example 64, N1-[4-(2,6Dichloro-3-fluorophenyl)-1,3-thiazol-2-yl]-2-(1,3-dimethyl-2,4-dioxo-1,2,3,4-tetrahydro-5-quinazolinyl)acetamide] | 11.5% | 27% | –
Cn1c(=O)c2c(CC(=O)Nc3nc(-c4c(F)ccc(F)c4F)cs3)cccc2n(C)c1=O [Example 62] | 59% | 94.2% | > 100 nM
Cn1c(=O)c2c(CC(=O)Nc3nc(-c4ccc(C(F)(F)F)cc4F)cs3)cccc2n(C)c1=O [Example 36, N1-[4-(2-Fluoro-4-trifluoromethylphenyl)-1,3-thiazol-2-yl]-2-(1,3-dimethyl-2,4-1,2,3,4-tetrahydro-5-quinazolinyl)acetamide] | 95.1% | 100% | < 50 nM
Cn1c(=O)c2c(CC(=O)Nc3nc(-c4ccc(I)cc4)cs3)cccc2n(C)c1=O [Example 13, N1-[4-(4-Iodophenyl)-1,3-thiazol-2yl]-2-(1,3-dimethyl-2,4-dioxo-1,2,3,4-tetrahydro-5-quinazolinyl)acetamide] | 79.2% | 94.7% | 50.1 to 100 nM
O=C(Cc1cccc2[nH]c(=O)[nH]c(=O)c12)Nc1nc(-c2ccc(Cl)cc2)cs1 [Example 29, N1-[4-(4-Chlorophenyl)-1,3-thiazol-2-yl]-2-(2,4-dioxo-1,2,3,4-tetrahydro-5-quinazolinyl)acetamide] | 20.9% | 47.7% | –
Cn1c(=O)c2c(CC(=O)Nc3nc(-c4ccc(C(F)(F)F)c(F)c4F)cs3)cccc2n(C)c1=O [Example 65, N1-[4-(2,3-Difluoro-4-trifluormethylphenyl)-1,3-thiazol-2-yl]-2-(1,3-dimethyl-2,4-dioxo-1,2,3,4-tetrahydro-5-quinazolinyl)acetamide] | 99.4% | 99.6% | < 50 nM
Cc1ccc(-c2csc(NC(=O)Cc3cccc4c3c(=O)n(C)c(=O)n4C)n2)cc1 [Example 24, N1-[4-(4-Methylphenyl)-1,3-thiazol-2yl]-2-(1,3-dimethyl-2,4-dioxo-1,2,3,4-tetrahydro-5-quinazolinyl)acetamide] | 83.9% | 96.8% | 50.1 to 100 nM
Cn1c(=O)c2c(CC(=O)Nc3nc(-c4cc(F)c(OCC5CC5)c(F)c4)cs3)cccc2n(C)c1=O [Example 72, N1-[4-(4-Cyclopropylmethoxy-3,5-difluorophenyl)-1,3-thiazol-2-yl]-2-(1,3-dimethyl-2,4-dioxo-1,2,3,4-tetrahydroquinazolin-5-yl)acetamide] | 95.4% | 96.5% | < 50 nM
Cn1c(=O)c2c(CC(=O)Nc3nc(-c4cc(C(F)(F)F)ccc4F)cs3)cccc2n(C)c1=O [Example 40, N1-[4-(2-Fluoro-5-trifluoromethylphenyl)-1,3-thiazol-2-yl]-2-(1,3-dimethyl-2,4-dioxo-1,2,3,4-tetrahydro-5-quinazolinyl)acetamide] | 82.7% | 98.7% | > 100 nM
Cn1c(=O)c2c(CC(=O)Nc3nc(-c4c[nH]c5ccccc45)cs3)cccc2n(C)c1=O [Example 73, N1-[4-(1H-3-Indolyl)-1,3-thiazol-2-yl]-2-(1,3-dimethyl-2,4-dioxo-1,2,3,4-tetrahydro-5-quinazolinyl)acetamide] | 32.5% | 72.6% | –
Cn1c(=O)c2c(CC(=O)Nc3nc(-c4ccc(OC(F)F)c(Cl)c4)cs3)cccc2n(C)c1=O [Example 57, N1-{4-[3-Chloro-4-(difluoromethoxy)phenyl]-1,3-thiazol-2-yl}-2-(1,3-dimethyl-2,4-dioxo-1,2,3,4-tetrahydro-5-quinazolinyl)acetamide] | 97.8% | 99.7% | < 50 nM
CC(C)Cc1ccc(-c2csc(NC(=O)Cc3cccc4c3c(=O)n(C)c(=O)n4C)n2)cc1 [Example 21] | 95.7% | 99.7% | < 50 nM
Cn1c(=O)c2c(CC(=O)Nc3nc(-c4ccc(F)c(F)c4)cs3)cccc2n(C)c1=O [Example 32, N1-[4-(3,4-Difluorophenyl)-1,3-thiazol-2-yl]-2-(1,3-dimethyl-2,4-dioxo-1,2,3,4-tetrahydro-5-quinazolinyl)acetamide] | 53.7% | 66.3% | –
Cn1c(=O)c2c(CC(=O)Nc3nc4c(s3)CCc3cc(Cl)ccc3-4)cccc2n(C)c1=O [Example 78] | 59.8% | 90.3% | > 100 nM
CC(C)CCOc1ccc(-c2csc(NC(=O)Cc3cccc4c3c(=O)n(C)c(=O)n4C)n2)cc1 [Example 19, N1-[4-(4-(3-Methylbutoxy)phenyl)-1,3-thiazol-2-yl]-2-(1,3-dimethyl-2,4-dioxo-1,2,3,4-tetrahydro-5-quinazolinyl)acetamide] | 93% | 97.9% | 50.1 to 100 nM
CCc1ccc(-c2csc(NC(=O)Cc3cccc4c3c(=O)n(C)c(=O)n4C)n2)cc1 [Example 23] | 96.2% | 96.9% | 50.1 to 100 nM
CCCn1c(=O)c2c(CC(=O)Nc3nc(-c4cccc(C(F)(F)F)c4)cs3)cccc2n(CCC)c1=O [Example 26, N1-[4-(3-Trifluoromethylphenyl)-1,3-thiazo-2-yl]-2-(1,3-dipropyl-2,4-dioxo-1,2,3,4-tetrahydro-5-quinazolinyl)acetamide] | 13.6% | 5.39% | –
Cn1c(=O)c2c(CC(=O)Nc3ccc(-c4ccc(Br)cc4)cc3)cccc2n(C)c1=O [Example 2, N1-[4-(4-Bromophenyl)phenyl]-2-(1,3-dimethyl-2,4-dioxo-1,2,3,4-tetrahydro-5-quinazolinyl)acetamide] | 25.3% | 50.8% | –
Cn1c(=O)n(CC2CC2)c(=O)c2c(CC(=O)Nc3nc(-c4ccc(C(F)(F)F)c(F)c4)cs3)cccc21 [Example 61, N1-[4-(3-Fluoro-4-trifluoromethylphenyl)-1,3-thiazol-2-yl]-2-(1-methyl-3-cyclopropyl-methyl-2,4-dioxo-1,2,3,4-tetrahydro-5-quinazolinyl)acetamide] | 25% | 60.4% | –
